Measurements from patent US4167570A, “2-Methyl-6-alkyl-11-aminoalkyl-6,11-dihydro-5H-pyrido(2,3-B)(1,5)benzodia zepin-5-ones and salts thereof” (Boehringer Ingelheim GmbH, priority 1976, dated 1979).
Where a name gives a salt, the structure may show the parent alone.

Tests used:
[1] = acute toxicity, LD50 in the mouse after intravenous administration; settings: in vivo, i.v., NMRI-mice both sexes, deaths within 14 days, Litchfield and Wilcoxon
Procedure: (§1) The bronchosecretolytic activity and the intravenous acute toxicity of the compounds of this invention and of certain related 2-unsubstituted analogs disclosed in German Offenlegungsschrift No. 2,424,811 were ascertained by the standard test methods described below.
The acute toxicity was tested in NMRI-mice of both sexes having a body weight of 20 gm after intravenous administration. 0.1 ml of an aqueous 0.9% sodium chloride solution/10 gm of animal was used as a vehicle. The LD50 was calculated according to LITCHFIELD and WILCOXON from the percentage of the animals which died within 14 days after administration of various dosages.

[2] = test system: bronchial secretion in guinea pigs; experiment: expectorant (bronchosecretolytic) activity, increase in bronchial secretion in anesthetized guinea pigs, peroral administration (Perry & Boyd, modified by Engelhorn & Puschmann); assay type: in vivo; settings: two-hour period, vs untreated controls, male guinea pigs
Procedure: as §1
The tests for expectorant activity were carried out according to the method of PERRY, W. and BOYD, E.M.; J. Pharmacol. exp. Therap. 73, 65 (1941), as modified by ENGELHORN, R. and PUSCHMANN, S.; Arzneimittel Forsch. 21, 1045 (1971), on male guinea pigs with a body weight of 450 to 550 gm, which were anesthetized by i.p.-administration of a * 25% urethane solution (1,0 g/kg). The substances were administered perorally at the indicated dosages levels, each in 2 ml of distilled water, by means of an esophageal tube. 5 tests were carried out per dosage. The increase in bronchial secretion was calculated from the amount secreted within a two-hour period after administration of the test compound in comparison with the values obtained from untreated control animals, also within a two-hour period.

| SMILES | LD50 at 336 h [1] [mg/kg] | Average percentage change in amount of bronchial secretion in guinea pigs ([2]; 0.005 μg/kg per os) | Average percentage change in amount of bronchial secretion in guinea pigs ([2]; 0.05 μg/kg per os) | Average percentage change in amount of bronchial secretion in guinea pigs ([2]; 0.5 μg/kg per os) |
| --- | --- | --- | --- | --- |
| CCN(CC)CCCN1c2ccccc2N(C)C(=O)c2ccc(C)nc21.Cl [A, 11-(3-Diethylamino-propyl)-6,11-dihydro-2,6-dimethyl-5H-pyrido[2,3-b][1,5]benzodiazepin-5-one hydrochloride] | 15.4 | +44% | +100% |  |
| CCN(CC)CCCN1c2cc(C)c(C)cc2N(C)C(=O)c2ccc(C)nc21.O=C(O)/C=C/C(=O)O [B, 11-(3-Diethylamino-propyl)-6,11-dihydro-2,6,8,9-tetramethyl-5H-pyrido[2,3-b][1,5]benzodiazepin-5-one hydrogen fumarate] | 9.9 | +44% | +83% |  |
| CCN(CC)CCCN1c2ccccc2N(C)C(=O)c2cccnc21.Cl [X, 11-(3-Diethylamino-propyl)-6,11-dihydro-6-methyl-5H-pyrido[2,3-b][1,5]benzodiazepin-5-one hydrochloride] |  | +0% | +13% | +80% |
| CCN(CCCN1c2ccccc2N(C)C(=O)c2cccnc21)C(C)C [Y, 11-[3-N-ethyl-N-isopropyl-amino)-propyl]-6,11-dihydro-6-methyl-5H-pyrido[2,3-b][1,5]benzodiazepin-5-one hydrochloride] | 30 |  | +10% |  |
| CC(C)N(CCCN1c2ccccc2N(C)C(=O)c2cccnc21)C(C)C.Cl [Z, 6,11-Dihydro-11-(3-diisopropylamino-propyl)-6-methyl-5H-pyrido[2,3-b][1,5]benzodiazepin-5-one hydrochloride] |  |  | +27% |  |
